Biological target: ATX (human His-tagged) (Homo sapiens (Human), UniProt Q13822)
Test: Human ATX enzyme inhibition assay (fluorescence quenching, MR121 substrate)
Type: biochemical
Conditions: 30 nM ATX, 1 μM MR121 substrate, 30° C., pH 8.0
Method: Human ATX Enzyme Inhibition Assay
ATX inhibition was measured by a fluorescence quenching assay using a specifically labeled substrate analogue (MR121 substrate). To obtain this MR121 substrate, BOC and TBS protected 6-amino-hexanoic acid (R)-3-({2-[3-(2-{2-[2-(2-amino-ethoxy)-ethoxy]-ethoxy}-ethoxy)-propionylamino]-ethoxy}-hydroxy-phosphoryloxy)-2-hydroxy-propyl ester (Ferguson et al., Org Lett 2006, 8 (10), 2023) was labeled with MR121 fluorophore (CAS 185308-24-1, 1-(3-carboxypropyl)-11-ethyl-1,2,3,4,8,9,10,11-octahydro-dipyrido[3,2-b:2′,3′-i]phenoxazin-13-ium) on the free amine of the ethanolamine side and then, after deprotection, subsequently with tryptophan on the side of the aminohexanoic acid.
Assay working solutions were made as follows:
Assay buffer (50 mM Tris-HCl, 140 mM NaCl, 5 mM KCl, 1 mM CaCl2, 1 mM MgCl2, 0.01% Triton-X-100, pH 8.0;
ATX solution: ATX (human His-tagged) stock solution (1.08 mg/mL in 20 mM bicine, pH 8.5, 0.15 M NaCl, 10% glycerol, 0.3% CHAPS, 0.02% NaN3), diluted to 1.4-2.5× final concentration in assay buffer;
MR121 substrate solution: MR121 substrate stock solution (800 μM MR121 substrate in DMSO), diluted to 2-5× final concentration in assay buffer.
Test compounds (10 mM stock in DMSO, 8 μL) were obtained in 384 well sample plates (Corning Costar #3655) and diluted with 8 μL DMSO. Row-wise serial dilutions were made by transferring 8 μL cpd solution to the next row up to row O. The compound and control solutions were mixed five times and 2 μL were transferred to 384 well assay plates (Corning Costar #3702). Then, 15 μL of 41.7 nM ATX solution was added (30 nM final concentration), mixed five times and then incubated for 15 minutes at 30° C. 10 μL of MR121 substrate solution was added (1 μM final concentration), mixed 30 times and then incubated for 15 minutes at 30′C.

IC50 [nM] | Compound
17 | O=C(c1ccc2cc(Br)ccc2c1)N1C[C@@H]2[C@H](C1)[C@H]1CN(C(=O)[C@@H]3CCc4[nH]nnc4C3)C[C@@H]21 [Example 1.016, (6-bromo-naphthalen-2-yl)-[(3aR,3bS,6aR,6bS)-5-((R)-4,5,6,7-tetrahydro-1H-benzotriazole-5-carbonyl)-octahydro-cyclobuta[1,2-c;3,4-c′]dipyrrol-2-yl]-methanone]
2830 | COc1cccc(C(=O)N2C[C@@H]3[C@H](C2)[C@H]2CN(C(=O)c4ccc5[nH]nnc5c4)C[C@@H]32)c1 [Example 1.028, [(3aS,3bS,6aR,6bR)-5-(1H-benzotriazole-5-carbonyl)-octahydro-cyclobuta[1,2-c;3,4-c′]dipyrrol-2-yl]-(3-methoxy-phenyl)-methanone]
8670 | O=C(c1ccc2[nH]nnc2c1)N1C[C@@H]2[C@H](C1)[C@H]1CN(C(=O)c3ccc4cc[nH]c4c3)C[C@@H]21 [Example 1.040, [(3aS,3bS,6aR,6bR)-5-(1H-benzotriazole-5-carbonyl)-octahydro-cyclobuta[1,2-c;3,4-c′]dipyrrol-2-yl]-(1H-indol-6-yl)-methanone]
232 | O=C(c1ccc2[nH]nnc2c1)N1C[C@@H]2[C@H](C1)[C@H]1CN(S(=O)(=O)c3ccc4cc(Cl)ccc4c3)C[C@@H]21 [Example 3.001, (1H-Benzotriazol-5-yl)-[(3aS,3bR,6aS,6bR)-5-(6-chloro-naphthalene-2-sulfonyl)-octahydro-cyclobuta[1,2-c;3,4-c′]dipyrrol-2-yl]-methanone]
9 | CC(C)Oc1cc(C(=O)N2C[C@@H]3[C@H]4CN(C(=O)c5ccc(S(N)(=O)=O)cc5)C[C@H]4[C@@H]3C2)cc2ccccc12 [Example 1.062, 4-[(3aS,3bS,6aR,6bR)-5-(4-isopropoxy-naphthalene-2-carbonyl)-octahydro-cyclobuta[1,2-c;3,4-c′]dipyrrole-2-carbonyl]benzenesulfonamide]
86 | O=C(c1ccc2ccccc2c1)N1C[C@@H]2[C@H](C1)[C@H]1CN(C(=O)c3ccc4[nH]nnc4c3)C[C@@H]21 [Example 1.012, [(3aS,3bS,6aR,6bR)-5-(1H-benzotriazole-5-carbonyl)-octahydro-cyclobuta[1,2-c;3,4-c′]dipyrrol-2-yl]-naphthalen-2-yl-methanone]
104 | O=C(c1ccc2[nH]nnc2c1)N1C[C@@H]2[C@H](C1)[C@H]1CN(C(=O)c3cc4ccc(Cl)cc4[nH]3)C[C@@H]21 [Example 1.033, [(3aR,3bS,6aR,6bS)-5-(1H-benzotriazole-5-carbonyl)-octahydro-cyclobuta[1,2-c;3,4-c′]dipyrrol-2-yl]-(6-chloro-1H-indol-2-yl)-methanone]
155 | COc1c(C(=O)N2C[C@@H]3[C@H]4CN(C(=O)c5ccc6[nH]nnc6c5)C[C@H]4[C@@H]3C2)ccc2ccccc12 [Example 1.022, [(3aS,3bS,6aR,6bR)-5-(1H-benzotriazole-5-carbonyl)-octahydro-cyclobuta[1,2-c;3,4-c′]dipyrrol-2-yl]-(1-methoxy-naphthalen-2-yl)-methanone]
13 | Cn1c(C(=O)N2C[C@@H]3[C@H]4CN(C(=O)c5ccc6[nH]nnc6c5)C[C@H]4[C@@H]3C2)cc2cc(OC(F)(F)F)ccc21 [Example 1.032, [(3aR,3bS,6aR,6bS)-5-(1H-benzotriazole-5-carbonyl)-octahydro-cyclobuta[1,2-c;3,4-c′]dipyrrol-2-yl]-(1-methyl-5-trifluoromethoxy-1H-indol-2-yl)-methanone]
17 | O=C(c1ccc2[nH]nnc2c1)N1C[C@@H]2[C@H](C1)[C@H]1CN(C(=O)c3cc(OCC4CC4)c(Cl)cn3)C[C@@H]21 [Example 1.086, (1H-benzotriazol-5-yl)-[(3aS,3bR,6aS,6bR)-5-(5-chloro-4-cyclopropylmethoxy-pyridine-2-carbonyl)-octahydro-cyclobuta[1,2-c;3,4-c′]dipyrrol-2-yl]-methanone]
632 | O=C(c1ccc2[nH]nnc2c1)N1C[C@@H]2[C@H](C1)[C@H]1CN(C(=O)C3CCc4ccccc4O3)C[C@@H]21 (stereo partly drawn) [Example 1.042, [(3aR,3bS,6aR,6bS)-5-(1H-benzotriazole-5-carbonyl)-octahydro-cyclobuta[1,2-c;3,4-c′]dipyrrol-2-yl]-chroman-2-yl-methanone]
59.2 | O=C(c1ccc2c(c1)CCCC2)N1C[C@@H]2[C@H](C1)[C@H]1CN(C(=O)c3ccc4[nH]nnc4c3)C[C@@H]21 [Example 1.054, [(3aS,3bS,6aR,6bR)-5-(1H-benzotriazole-5-carbonyl)-octahydro-cyclobuta[1,2-c;3,4-c′]dipyrrol-2-yl]-(5,6,7,8-tetrahydro-naphthalen-2-yl)-methanone]
5.3 | O=C(c1ccc2[nH]nnc2c1)N1C[C@@H]2[C@H](C1)[C@H]1CN(C(=O)c3cc4ccccc4c(OCC4CC4)n3)C[C@@H]21 [Example 1.058, [(3aR,3bS,6aR,6bS)-5-(1H-benzotriazole-5-carbonyl)-octahydro-cyclobuta[1,2-c;3,4-c′]dipyrrol-2-yl]-(1-cyclopropylmethoxy-isoquinolin-3-yl)-methanone]
31.5 | COCCOc1cc(C(=O)N2C[C@@H]3[C@H]4CN(C(=O)c5ccc6[nH]nnc6c5)C[C@H]4[C@@H]3C2)nc2cc(C(F)(F)F)ccc12 [Example 1.079, (1H-benzotriazol-5-yl)-{(3aS,3bR,6aS,6bR)-5-[4-(2-methoxy-ethoxy)-7-trifluoromethyl-quinoline-2-carbonyl]-octahydro-cyclobuta[1,2-c;3,4-c′]dipyrrol-2-yl}-methanone]
5 | CCOc1cc(C(=O)N2C[C@@H]3[C@H]4CN(C(=O)c5ccc6[nH]nnc6c5)C[C@H]4[C@@H]3C2)nc2ccccc12 [Example 1.066, [(3aR,3bS,6aR,6bS)-5-(1H-benzotriazole-5-carbonyl)-octahydro-cyclobuta[1,2-c;3,4-c′]dipyrrol-2-yl]-(4-ethoxy-quinolin-2-yl)-methanone]

Compound | IC50 [nM]
O=C(c1cnc(OCC(F)(F)F)c(C(F)(F)F)c1)N1C[C@@H]2[C@H](C1)[C@H]1CN(C(=O)c3ccc4[nH]nnc4c3)C[C@@H]21 [Example 1.105, (1H-benzotriazol-5-yl)-{(3aS,3bS,6aR,6bR)-5-[6-(2,2,2-trifluoro-ethoxy)-5-trifluoromethyl-pyridine-3-carbonyl]-octahydro-cyclobuta[1,2-c;3,4-c′]dipyrrol-2-yl}-methanone] | 8
O=C(c1ccc2[nH]nnc2c1)N1C[C@@H]2[C@H](C1)[C@H]1CN(C(=O)c3ccc(C(F)(F)F)c(OCC(F)(F)F)n3)C[C@@H]21 [Example 1.097, (1H-benzotriazol-5-yl)-{(3aS,3bR,6aS,6bR)-5-[6-(2,2,2-trifluoro-ethoxy)-5-trifluoromethyl-pyridine-2-carbonyl]-octahydro-cyclobuta[1,2-c;3,4-c′]dipyrrol-2-yl}-methanone] | 25
O=C(c1ccc2[nH]nnc2c1)N1C[C@@H]2[C@H](C1)[C@H]1CN(C(=O)c3cc(-c4ccc(Cl)cc4)c(OCC(F)(F)F)cn3)C[C@@H]21 [Example 1.107, (1H-benzotriazol-5-yl)-{(3aS,3bR,6aS,6bR)-5-[4-(4-chloro-phenyl)-5-(2,2,2-trifluoro-ethoxy)-pyridine-2-carbonyl]-octahydro-cyclobuta[1,2-c;3,4-c′]dipyrrol-2-yl}-methanone] | 141

From patent US10849881B2, “Octahydro-cyclobuta[1,2-c;3,4-c′]dipyrrol-2-yl” (Hoffmann-La Roche Inc., priority 2013, dated 2020)
